Blank lines part the entries; values can stand above or below the compound they belong to.
Test: solvent given as SMILES

Structure (SMILES): O=S1(=O)c2ccccc2C2(c3cc(-c4ccc(-n5c6ccccc6c6ccccc65)cc4)ccc3-c3ccc(-c4ccc(-n5c6ccccc6c6ccccc65)cc4)cc32)c2ccccc21
fluorescence lifetime (in ClCCl): 0.9 ns

Structure (SMILES): COc1cc(N(c2ccccc2)c2ccccc2)ccc1C=C(C#N)C#N
fluorescence lifetime (in C1COCCO1): 0.04 ns
fluorescence lifetime (in CC#N): 0.02 ns
fluorescence lifetime (in CC(C)=O): 0.05 ns
fluorescence lifetime (in CCOC(C)=O): 0.07 ns
fluorescence lifetime (in CN(C)C=O): 0.03 ns
fluorescence lifetime (in CO): 0.02 ns
fluorescence lifetime (in Cc1ccccc1): 0.03 ns
fluorescence lifetime (in ClC(Cl)Cl): 0.1 ns
fluorescence lifetime (in ClCCl): 0.06 ns

Structure (SMILES): CN(C)c1ccc(/C=C/c2cc[n+](CCCOCC(COCCC[n+]3ccc(/C=C/c4ccc(N(C)C)cc4)cc3)(COCCC[n+]3ccc(/C=C/c4ccc(N(C)C)cc4)cc3)COCCC[n+]3ccc(/C=C/c4ccc(N(C)C)cc4)cc3)cc2)cc1
fluorescence lifetime (in CCCCCCCCO): 0.48 ns
fluorescence lifetime (in CCCO): 0.18 ns
fluorescence lifetime (in CCO): 0.11 ns
fluorescence lifetime (in CO): 0.09 ns
fluorescence lifetime (in ClC(Cl)Cl): 0.46 ns
fluorescence lifetime (in ClCCl): 0.31 ns

Structure (SMILES): CC1(C)C(/C=C/C2=C(Cl)C(=C/C=C3/N(CCCCS(=O)(=O)[O-])c4ccc5ccccc5c4C3(C)C)/CCC2)=[N+](CCCCS(=O)(=O)[O-])c2ccc3ccccc3c21
fluorescence lifetime (in CC(C)=O): 0.43 ns
fluorescence lifetime (in CCO): 0.38 ns
fluorescence lifetime (in CO): 0.25 ns
fluorescence lifetime (in CS(C)=O): 0.5 ns
fluorescence lifetime (in ClC(Cl)Cl): 0.73 ns
fluorescence lifetime (in ClCCl): 0.59 ns
fluorescence lifetime (in O): 0.13 ns

Structure (SMILES): COc1ccc(-c2cc(-c3ccc(OC)cc3)c3c(N)nc(N4CCCC4)c(C#N)c3n2)cc1
fluorescence lifetime (in CC#N): 11.6 ns
fluorescence lifetime (in CC(C)=O): 10 ns
fluorescence lifetime (in CC(C)O): 11.6 ns
fluorescence lifetime (in CO): 10.3 ns
fluorescence lifetime (in ClC(Cl)Cl): 11.6 ns
fluorescence lifetime (in ClCCl): 13.2 ns
fluorescence lifetime (in c1ccccc1): 12 ns

Structure (SMILES): c1cc2c3c(cccc3c1)C(N1CCOCCOCCOCCOCC1)=N2
fluorescence lifetime (in CC#N): 0.55 ns

Structure (SMILES): CC1(C)Nc2cc(Cl)ccc2-c2[nH]c3ccccc3c(=O)c21
fluorescence lifetime (in C1CCOC1): 7.47 ns
fluorescence lifetime (in CC#N): 8.72 ns
fluorescence lifetime (in CCCCO): 9.26 ns
fluorescence lifetime (in CCCO): 9.2 ns
fluorescence lifetime (in CCO): 9 ns
fluorescence lifetime (in CCOC(C)=O): 7.52 ns
fluorescence lifetime (in CN(C)C=O): 9.36 ns
fluorescence lifetime (in CO): 8.67 ns
fluorescence lifetime (in CS(C)=O): 9.91 ns
fluorescence lifetime (in Cc1ccccc1): 6.68 ns
fluorescence lifetime (in ClC(Cl)(Cl)Cl): 4.8 ns
fluorescence lifetime (in ClCCl): 8.06 ns
fluorescence lifetime (in O): 8.68 ns
fluorescence lifetime (in c1ccccc1): 6.71 ns

Structure (SMILES): COC(=O)C(Cc1ccc2oc(-c3ccc4c(c3)c3ccccc3n4-c3ccccc3)nc2c1)NC(=O)OC(C)(C)C (centres undefined)
fluorescence lifetime (in C1CCCCC1): 2.29 ns
fluorescence lifetime (in C1CCOC1): 1.73 ns
fluorescence lifetime (in C1COCCO1): 1.96 ns
fluorescence lifetime (in CC1CCCO1): 1.83 ns
fluorescence lifetime (in CC1COC(=O)O1): 1.83 ns
fluorescence lifetime (in CC#N): 1.77 ns
fluorescence lifetime (in CC(C)=O): 1.75 ns
fluorescence lifetime (in CC(C)CC(C)(C)C): 2.22 ns
fluorescence lifetime (in CC(C)CO): 1.55 ns
fluorescence lifetime (in CC(C)O): 1.57 ns
fluorescence lifetime (in CC(C)OC(C)C): 1.66 ns
fluorescence lifetime (in CC(O)CO): 1.74 ns
fluorescence lifetime (in CCC(C)CC): 2.25 ns
fluorescence lifetime (in CCCCC): 2.66 ns
fluorescence lifetime (in CCCCCC): 2.23 ns
fluorescence lifetime (in CCCCCCCCC): 2.3 ns
fluorescence lifetime (in CCCCCCCCCC): 2.33 ns
fluorescence lifetime (in CCCCCCCO): 1.55 ns
fluorescence lifetime (in CCCCCCO): 1.56 ns
fluorescence lifetime (in CCCCCO): 1.54 ns
fluorescence lifetime (in CCCCO): 1.54 ns
fluorescence lifetime (in CCO): 1.66 ns
fluorescence lifetime (in CCOC(C)=O): 1.87 ns
fluorescence lifetime (in CCOCC): 2.13 ns
fluorescence lifetime (in CN(C)C=O): 1.73 ns
fluorescence lifetime (in CO): 1.72 ns
fluorescence lifetime (in COCCOC): 1.2 ns
fluorescence lifetime (in CS(C)=O): 1.69 ns
fluorescence lifetime (in Cc1ccccc1): 1.66 ns
fluorescence lifetime (in Cc1ccccc1C): 1.76 ns
fluorescence lifetime (in ClC(Cl)Cl): 1.32 ns
fluorescence lifetime (in ClCCl): 1.5 ns
fluorescence lifetime (in NC=O): 1.86 ns
fluorescence lifetime (in OC1CCCCC1): 1.58 ns
fluorescence lifetime (in OCCO): 1.84 ns
fluorescence lifetime (in c1ccccc1): 1.67 ns

Structure (SMILES): COc1ccc(N(c2ccccc2)c2ccc(OC)cc2)cc1
fluorescence lifetime (in Cc1ccccc1): 2.27 ns

Structure (SMILES): C(#Cc1cccc2cc(-c3ccccc3)c3cc(-c4cc[b-]5c(c4)c(-c4ccccc4)cc4cccc(C#Cc6ccccc6)[n+]54)cc[b-]3[n+]12)c1ccccc1
fluorescence lifetime (in C1CCCCC1): 2.4 ns

Structure (SMILES): c1ccc(-c2nc(-c3ccccc3)nc(-c3ccc(N4c5ccccc5C5(c6ccccc6-c6ccccc65)c5ccccc54)cc3)n2)cc1
fluorescence lifetime (in O=P(c1ccccc1)(c1ccccc1)c1ccccc1Oc1ccccc1P(=O)(c1ccccc1)c1ccccc1): 33 ns

Structure (SMILES): N#Cc1ccc(-n2cccc2)cc1
fluorescence lifetime (in CC#N): 8.2 ns
fluorescence lifetime (in CCCCCC): 2.42 ns
fluorescence lifetime (in CCOCC): 3.8 ns
fluorescence lifetime (in ClCCl): 3.1 ns

Structure (SMILES): C(=C\c1nc(-c2ccccc2)c2ccccn12)/c1nc(-c2ccccc2)c2ccccn12
fluorescence lifetime (in CC#N): 1 ns

Structure (SMILES): Cc1cc(C)c(B(c2ccc(-c3cc4ccc5cccc6ccc(c3)c4c56)cc2)c2c(C)cc(C)cc2C)c(C)c1
fluorescence lifetime (in Cc1ccccc1): 65 ns

Structure (SMILES): N#C/C=C/c1ccc2ccc3cccc4ccc1c2c34
fluorescence lifetime (in C1CCOC1): 3.2 ns
fluorescence lifetime (in CC#N): 3 ns
fluorescence lifetime (in CC(C)=O): 3.1 ns

Structure (SMILES): COCCOCCOCCOCC(COCCOCCOCCOC)Oc1cc(/C=C/c2ccc(/C=C(\C#N)c3ccccc3)cc2)c(OC(COCCOCCOCCOC)COCCOCCOCCOC)cc1/C=C/c1ccc(/C=C(\C#N)c2ccccc2)cc1
fluorescence lifetime (in ClCCl): 1.6 ns

Structure (SMILES): CCCCNc1nc(/C=C/c2ccccc2)[n+]([O-])c2c1CCCC2
fluorescence lifetime (in ClCCl): 8.9 ns

Structure (SMILES): O=C1c2ccccc2-c2cnccc21
fluorescence lifetime (in CC#N): 6.7 ns
fluorescence lifetime (in CCOC(C)=O): 2.4 ns
fluorescence lifetime (in Cc1ccccc1): 2.2 ns
fluorescence lifetime (in ClCCl): 6.1 ns

Structure (SMILES): COc1ccc2c(c1)sc1[n+]2[B-](F)(F)OC(c2ccc(N(C)C)cc2)=N1
fluorescence lifetime (in Cc1ccccc1): 1.59 ns

Structure (SMILES): Cc1ccc(C2=[N+]3C(=Cc4c(C)cc(C)n4[B-]3(F)F)c3ccccc32)[nH]1
fluorescence lifetime (in C1CCOC1): 6.54 ns
fluorescence lifetime (in CC#N): 6.32 ns
fluorescence lifetime (in CCCCCC): 7.31 ns
fluorescence lifetime (in CO): 6.5 ns
fluorescence lifetime (in Cc1ccccc1): 6.17 ns
fluorescence lifetime (in ClCCl): 6.65 ns

Structure (SMILES): C(=C\c1cccc2ccccc12)/c1ccc(-c2nnc(-c3ccc(-c4cc5ccccc5s4)cc3)o2)cc1
fluorescence lifetime (in Cc1ccccc1): 0.97 ns
fluorescence lifetime (in ClC(Cl)Cl): 1.15 ns

Structure (SMILES): C(#Cc1cc2ccc3cccc4ccc(c1)c2c34)c1ccccc1
fluorescence lifetime (in Cc1ccccc1): 71 ns

Next, values leading:

fluorescence lifetime (in C1CCOC1): 0.4 ns
fluorescence lifetime (in ClCCl): 0.4 ns
Structure (SMILES): CCCCCCCc1ccc(C2=[N+]3C(=C4c5cc(OCC(CC)CC)c(-c6ccc(CCCCCCC)o6)n5[B-](F)(F)[n+]5c4n(c4cc(C(C)(C)C)ccc45)[B-]3(F)F)C=C2OCC(CC)CC)o1

fluorescence lifetime (in C1CCCCC1): 4.2 ns
Structure (SMILES): C[Si](C)(C)C#Cc1ccc2c3cccc4cccc(c5cccc1c52)c43

fluorescence lifetime (in ClCCl): 7.8 ns
Structure (SMILES): N#CC1=c2c3cccc4c(Br)ccc(c43)n2[B-](F)(F)[n+]2ccccc21

fluorescence lifetime (in ClCCl): 0.99 ns
Structure (SMILES): CCCCn1c(-c2ccc(-c3nnc(-c4ccc(-c5nc6ccccc6n5CCCC)cc4)o3)cc2)nc2ccccc21

fluorescence lifetime (in ClCCl): 8.11 ns
Structure (SMILES): Cc1ccc(C2=[N+]3C(=Cc4ccc(C)n4[B-]3(F)F)c3ccccc32)[nH]1

fluorescence lifetime (in O): 1.4 ns
Structure (SMILES): Cc1ccc(N(CC(=O)[O-])CC(=O)[O-])cc1OCCOc1cc(-c2cc3ccc(C(=O)[O-])cc3[nH]2)ccc1N(CC(=O)[O-])CC(=O)[O-]

fluorescence lifetime (in ClC(Cl)Cl): 0.37 ns
Structure (SMILES): CC1=CC(C)=[N+]2C1=C(c1ccc(I)cc1)c1c(C)cc(C)n1[B-]2(Oc1ccc(Cl)cc1)Oc1ccc(Cl)cc1

fluorescence lifetime (in CO): 0.21 ns
fluorescence lifetime (in ClC(Cl)Cl): 1.42 ns
Structure (SMILES): CN1C(=CC2=C([O-])C(=CC3=[N+](C)c4ccc(Cl)cc4C3(C)C)C2=O)C(C)(C)c2cc(Cl)ccc21

fluorescence lifetime (in CCCCCC): 6.75 ns
fluorescence lifetime (in CO): 6.96 ns
fluorescence lifetime (in ClCCl): 6.2 ns
Structure (SMILES): CC1=[N+]2C(=Cc3cccn3[B-]2(F)F)C=C1

fluorescence lifetime (in CS(C)=O): 7.96 ns
Structure (SMILES): CCCCCCCCn1c2ccccc2c(=O)c2ccccc21

fluorescence lifetime (in ClCCl): 0.37 ns
Structure (SMILES): CC(C)[Si](C#Cc1ccc(C#C[Si](C(C)C)(C(C)C)C(C)C)c2nc3ccccc3nc12)(C(C)C)C(C)C

fluorescence lifetime (in ClC(Cl)Cl): 0.38 ns
Structure (SMILES): CC1=CC(C)=[N+]2C1=C(c1ccc(I)cc1)c1c(C)cc(C)n1[B-]2(Oc1ccccc1)Oc1ccccc1

fluorescence lifetime (in CC#N): 1.8 ns
Structure (SMILES): Cc1cccc2c1nc1c(=O)n(C)c(=O)nc-1n2C

fluorescence lifetime (in CS(C)=O): 0.27 ns
Structure (SMILES): COc1ccc(-c2nc3c(c4c2-c2ccc(C#N)cc2CC4)-c2ccc(C#N)cc2CC3)cc1

fluorescence lifetime (in c1cc(-c2cccc(-n3c4ccccc4c4ccccc43)c2)cc(-n2c3ccccc3c3ccccc32)c1): 54 ns
Structure (SMILES): CC(C)c1cc(C(C)C)c(B2c3cc(N4c5ccccc5Oc5ccccc54)ccc3N(c3ccccc3)c3ccc(N4c5ccccc5Oc5ccccc54)cc32)c(C(C)C)c1

fluorescence lifetime (in ClCCl): 6.4 ns
Structure (SMILES): F[B-]1(F)n2c(c3cccc4cccc2c43)=Nc2cccc(Cl)[n+]21

fluorescence lifetime (in ClCCl): 5.6 ns
Structure (SMILES): COc1ccc(C(=O)c2c(C)c3ccc4cccc5c6cccc7ccc2c(c76)c3c45)cc1

fluorescence lifetime (in CC#N): 0.63 ns
Structure (SMILES): Cc1cc2nc3c(=O)[nH]c(=O)n(C)c3nc2cc1C

fluorescence lifetime (in CCO): 5.52 ns
Structure (SMILES): CCCCCCCCCCCCN1C(=O)c2cccc3c(N(Cc4ccccn4)Cc4ccccn4)c4ccccc4c(c23)C1=O

fluorescence lifetime (in CCCCCC): 3.8 ns
fluorescence lifetime (in CO): 7.5 ns
fluorescence lifetime (in CS(C)=O): 6.6 ns
fluorescence lifetime (in ClC(Cl)Cl): 5.6 ns
fluorescence lifetime (in ClCCl): 6.2 ns
fluorescence lifetime (in O): 2.3 ns
Structure (SMILES): O=S(=O)(/N=c1\oc2cccc3c4c(-c5ccccc5)oc5cccc(c(c1-c1ccccc1)c23)c54)C(F)(F)F

fluorescence lifetime (in C1COCCO1): 0.023 ns
fluorescence lifetime (in CC#N): 0.044 ns
fluorescence lifetime (in CCO): 0.08 ns
fluorescence lifetime (in OCC(F)(F)F): 0.13 ns
Structure (SMILES): Cc1cc(=O)oc2c1cc(Br)c1occ(C)c12

fluorescence lifetime (in CC#N): 0.39 ns
Structure (SMILES): C=Cc1cc2ccccc2oc1=O

fluorescence lifetime (in ClCCl): 0.63 ns
Structure (SMILES): O=[N+]([O-])c1ccc2c(c1)-c1c3c(c4c([n+]1[B-](F)(F)O2)CCc1ccccc1-4)CCc1ccccc1-3

From the Deep4Chem optical property database
